Reference: US4002690A (priority 1974, dated 1977)
Where a name gives a salt, the structure may show the parent alone.

How the values were obtained:
[1] = system: Newcastle disease virus (NDV); test: microbe, parasite or virus in culture; assay type: cell-based, Newcastle disease virus (host: chick embryo); conditions: for inhibition at 39 µg/mL / inhibition at 78 µg/mL / inhibition at 156 µg/mL: avian paramyxovirus 1, in Gallus gallus, 48 h, read-out: % Inhibition of NDV Multiplications
[2] = Antiviral activity in vivo (statement only); conditions: no test details given

`NC12CC3CC(CC(C3)C1)C2` [Amantadine.HCl, reference compound] showed an inhibition at 39 µg/mL [1] of 0%, an inhibition at 78 µg/mL [1] of 0% and an inhibition at 156 µg/mL [1] of 0%.
In the case of `OCC12CCCC3CC(CCC31)C2` (stereo not drawn) [II], the “antiviral activity in vivo” value [2] is reported as “potent antiviral activity in vivo”, the “antiviral activity compared with Amantadine hydrochloride” value ([1]; NDV, in vitro, chick embryo monolayer tissue culture) is reported as “extremely superior to that of Amantadine hydrochloride” and the inhibition at 39 µg/mL [1] is reported as 0%. The inhibition at 78 µg/mL [1] was 91.2%, the inhibition at 156 µg/mL [1] was 99.8% and the “virus replication in the tissue culture” value ([1]; containing above 39 μg/ml of carbinol (II)) was “almost completely inhibited”.
